# Laboratory results as given in PubChem BioAssay (NCI).
#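 Growth conditions: 96-well plates. Treatment: test compound, 48 hours, 5 concentrations. Analysis: linear interpolation between bracketing concentrations; unreached endpoints set to highest concentration. Abbreviation: GI50, concentration required for 50% inhibition of growth. TGI: concentration producing complete growth inhibition.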
# Legend:
# Assay in all cases: NCI tumour cell line growth inhibition, 48 h
# [1] = test system: HCT-116 colon
# [2] = test system: SK-MEL-5 melanoma
# [3] = test system: RXF 393 renal
# [4] = test system: HT29 colon
# [5] = test system: U251 CNS
# [6] = test system: M14 melanoma
# [7] = test system: HL-60(TB) leukemia
# [8] = test system: KM12 colon
# [9] = test system: SK-OV-3 ovarian
# [10] = test system: ACHN renal
# [11] = test system: SF-268 CNS
# [12] = test system: LOX IMVI melanoma
# [13] = test system: OVCAR-5 ovarian
# [14] = test system: MDA-MB-231 breast
# [15] = test system: TK-10 renal
# [16] = test system: UO-31 renal
# [17] = test system: A549 NSCLC
# [18] = test system: OVCAR-3 ovarian
# [19] = test system: MOLT-4 leukemia
# [20] = test system: NCI-H460 lung
# [21] = test system: SK-MEL-28 melanoma
# [22] = test system: HCC-2998 colon
# [23] = test system: PC-3 prostate
# [24] = test system: IGROV1 ovarian
# [25] = test system: K-562 leukemia
# [26] = test system: COLO 205 colon
# [27] = test system: OVCAR-4 ovarian
# [28] = test system: RPMI-8226 leukemia
# [29] = test system: HOP-92 NSCLC
# [30] = test system: 786-0 renal
# [31] = test system: HS 578T breast
# [32] = test system: DU-145 prostate
# [33] = test system: BT-549 breast
# [34] = test system: SR leukemia
# [35] = test system: NCI-H226 lung
# [36] = test system: UACC-62 melanoma
# [37] = test system: SNB-19 CNS
# [38] = test system: NCI/ADR-RES ovarian
# [39] = test system: MCF7 breast
# [40] = test system: UACC-257 melanoma
# [41] = test system: SN12C renal
# [42] = test system: A498 renal
# [43] = test system: T-47D breast
# [44] = test system: EKVX NSCLC
# [45] = test system: MDA-MB-435
# [46] = test system: HCT-15 colon
# [47] = test system: SF-539 CNS
# [48] = test system: CAKI-1 renal
# [49] = test system: CCRF-CEM leukemia
# [50] = test system: OVCAR-8 ovarian
# [51] = test system: SNB-75 CNS
# [52] = test system: SK-MEL-2 melanoma
# [53] = test system: SW-620 colon
# [54] = test system: NCI-H522 lung
# [55] = test system: HOP-62 NSCLC
# [56] = test system: MALME-3M melanoma
# [57] = test system: NCI-H23 lung
# [58] = test system: SF-295 CNS
structure (smiles),measurement,setting,value
NNc1cccc(/C=C/c2ccccc2)cc1=O,GI50,[1],7300 nM
same,TGI,[1],> 100000 nM
same,GI50,[2],11700 nM
same,TGI,[2],> 100000 nM
same,GI50,[3],46500 nM
same,TGI,[3],> 100000 nM
same,GI50,[4],10700 nM
same,TGI,[4],> 100000 nM
same,GI50,[5],6930 nM
same,TGI,[5],> 100000 nM
same,GI50,[6],12400 nM
same,TGI,[6],44700 nM
same,GI50,[7],3970 nM
same,TGI,[7],> 100000 nM
same,GI50,[8],8330 nM
same,TGI,[8],> 100000 nM
same,GI50,[9],19800 nM
same,TGI,[9],> 100000 nM
same,GI50,[10],7270 nM
same,TGI,[10],> 100000 nM
same,GI50,[11],4270 nM
same,TGI,[11],> 100000 nM
same,GI50,[12],5070 nM
same,TGI,[12],> 100000 nM
same,GI50,[13],45900 nM
same,TGI,[13],> 100000 nM
same,GI50,[14],4730 nM
same,TGI,[14],> 100000 nM
same,GI50,[15],50600 nM
same,TGI,[15],> 100000 nM
same,GI50,[16],1860 nM
same,TGI,[16],9240 nM
same,GI50,[17],7780 nM
same,TGI,[17],> 100000 nM
same,GI50,[18],7350 nM
same,TGI,[18],62600 nM
same,GI50,[19],3940 nM
same,TGI,[19],> 100000 nM
same,GI50,[20],3610 nM
same,TGI,[20],42300 nM
same,GI50,[21],35900 nM
same,TGI,[21],> 100000 nM
same,GI50,[22],16800 nM
same,TGI,[22],> 100000 nM
same,GI50,[23],7870 nM
same,TGI,[23],> 100000 nM
same,GI50,[24],4260 nM
same,TGI,[24],46100 nM
same,GI50,[25],3130 nM
same,TGI,[25],> 100000 nM
same,GI50,[26],7760 nM
same,TGI,[26],> 100000 nM
same,GI50,[27],4660 nM
same,TGI,[27],> 100000 nM
same,GI50,[28],3850 nM
same,TGI,[28],> 100000 nM
same,GI50,[29],8710 nM
same,TGI,[29],70700 nM
same,GI50,[30],19900 nM
same,TGI,[30],> 100000 nM
same,GI50,[31],18500 nM
same,TGI,[31],> 100000 nM
same,GI50,[32],7040 nM
same,TGI,[32],> 100000 nM
same,GI50,[33],33500 nM
same,TGI,[33],> 100000 nM
same,GI50,[34],3850 nM
same,TGI,[34],> 100000 nM
same,GI50,[35],19900 nM
same,TGI,[35],> 100000 nM
same,GI50,[36],5330 nM
same,TGI,[36],93100 nM
same,GI50,[37],14900 nM
same,TGI,[37],> 100000 nM
same,GI50,[38],4360 nM
same,TGI,[38],> 100000 nM
same,GI50,[39],8320 nM
same,TGI,[39],> 100000 nM
same,GI50,[40],26700 nM
same,TGI,[40],> 100000 nM
same,GI50,[41],15200 nM
same,TGI,[41],> 100000 nM
same,GI50,[42],13000 nM
same,TGI,[42],55700 nM
same,GI50,[43],5360 nM
same,TGI,[43],92500 nM
same,GI50,[44],3270 nM
same,TGI,[44],35800 nM
same,GI50,[45],4310 nM
same,TGI,[45],50100 nM
same,GI50,[46],3800 nM
same,TGI,[46],> 100000 nM
same,GI50,[47],23000 nM
same,TGI,[47],> 100000 nM
same,GI50,[48],2600 nM
same,TGI,[48],8170 nM
same,GI50,[49],1360 nM
same,TGI,[49],29500 nM
same,GI50,[50],3740 nM
same,TGI,[50],> 100000 nM
same,GI50,[51],31000 nM
same,TGI,[51],> 100000 nM
same,GI50,[52],70100 nM
same,TGI,[52],> 100000 nM
same,GI50,[53],5860 nM
same,TGI,[53],> 100000 nM
same,GI50,[54],8180 nM
same,TGI,[54],> 100000 nM
same,GI50,[55],9300 nM
same,TGI,[55],> 100000 nM
COC1CC2C=C(C)/C=C/C=C/C(=O)NC(c3ccccc3)C/C=C/CCC(O)CC(=O)C2=C1O (configuration not stated),GI50,[1],272 nM
same,TGI,[1],1220 nM
same,GI50,[3],314 nM
same,TGI,[3],1090 nM
same,GI50,[4],238 nM
same,TGI,[4],854 nM
same,GI50,[5],153 nM
same,TGI,[5],994 nM
same,GI50,[6],310 nM
same,TGI,[6],1470 nM
same,GI50,[7],153 nM
same,TGI,[7],406 nM
same,GI50,[8],332 nM
same,TGI,[8],1260 nM
same,GI50,[9],369 nM
same,TGI,[9],1460 nM
same,GI50,[10],311 nM
same,TGI,[10],1140 nM
same,GI50,[11],365 nM
same,TGI,[11],1510 nM
same,GI50,[12],297 nM
same,TGI,[12],1220 nM
same,GI50,[13],357 nM
same,TGI,[13],1240 nM
same,GI50,[14],270 nM
same,TGI,[14],961 nM
same,GI50,[15],298 nM
same,TGI,[15],1310 nM
same,GI50,[16],281 nM
same,TGI,[16],1140 nM
same,GI50,[17],241 nM
same,TGI,[17],1150 nM
same,GI50,[18],271 nM
same,TGI,[18],894 nM
same,GI50,[19],364 nM
same,TGI,[19],1400 nM
same,GI50,[20],240 nM
same,TGI,[20],1190 nM
same,GI50,[21],703 nM
same,TGI,[21],2030 nM
same,GI50,[22],558 nM
same,TGI,[22],1940 nM
same,GI50,[23],289 nM
same,TGI,[23],1160 nM
same,GI50,[24],444 nM
same,TGI,[24],1840 nM
same,GI50,[25],212 nM
same,TGI,[25],1030 nM
same,GI50,[26],159 nM
same,TGI,[26],315 nM
same,GI50,[27],294 nM
same,TGI,[27],1080 nM
same,GI50,[28],186 nM
same,TGI,[28],566 nM
same,GI50,[29],141 nM
same,TGI,[29],457 nM
same,GI50,[30],434 nM
same,TGI,[30],1660 nM
same,GI50,[31],393 nM
same,TGI,[31],1910 nM
same,GI50,[32],405 nM
same,TGI,[32],1570 nM
same,GI50,[33],261 nM
same,TGI,[33],1170 nM
same,GI50,[34],95.6 nM
same,TGI,[34],794 nM
same,GI50,[35],430 nM
same,TGI,[35],2170 nM
same,GI50,[36],318 nM
same,TGI,[36],1540 nM
same,GI50,[37],279 nM
same,TGI,[37],1420 nM
same,GI50,[38],309 nM
same,TGI,[38],1190 nM
same,GI50,[39],169 nM
same,TGI,[39],776 nM
same,GI50,[40],186 nM
same,TGI,[40],577 nM
same,GI50,[41],227 nM
same,TGI,[41],1110 nM
same,GI50,[42],166 nM
same,TGI,[42],654 nM
same,GI50,[56],214 nM
same,TGI,[56],1190 nM
same,GI50,[43],264 nM
same,TGI,[43],871 nM
same,GI50,[45],313 nM
same,TGI,[45],1290 nM
same,GI50,[46],274 nM
same,TGI,[46],1290 nM
same,GI50,[47],280 nM
same,TGI,[47],912 nM
same,GI50,[48],314 nM
same,TGI,[48],1010 nM
same,GI50,[49],284 nM
same,TGI,[49],1300 nM
same,GI50,[57],240 nM
same,TGI,[57],1110 nM
same,GI50,[50],208 nM
same,TGI,[50],904 nM
same,GI50,[51],208 nM
same,TGI,[51],828 nM
same,GI50,[52],223 nM
same,TGI,[52],600 nM
same,GI50,[53],310 nM
same,TGI,[53],1360 nM
same,GI50,[58],246 nM
same,TGI,[58],788 nM
same,GI50,[54],211 nM
same,TGI,[54],693 nM
same,GI50,[55],275 nM
same,TGI,[55],1530 nM
